*1 amine or outer side, *2 acyl side, *3 side chain or, on linkers, in order; H or OH if unused. Where a SMILES comes first, the peptide text is derived from it. Bridges are numbered along the chain shown (N, C = ends). [ ]: non-standard residue; d: D form. ξ: configuration not given here. X11 = CCCC[C@@H](C(=O)C1C[C@H](O)C[C@@H]1C(=O)[*:2])N(C)[*:1]; Phe(4-NO2) = N[C@@H](Cc1ccc([N+](=O)[O-])cc1)C(=O)O; Phe(3,4,5-F3) = N[C@@H](Cc1cc(F)c(F)c(F)c1)C(=O)O; Phe(3,4-Cl2) = N[C@@H](Cc1ccc(Cl)c(Cl)c1)C(=O)O; NMeAla(4-thiazolyl) = CN[C@@H](Cc1cscn1)C(=O)O; Phe(3-Cl) = N[C@@H](Cc1cccc(Cl)c1)C(=O)O; Phe(4-F) = N[C@@H](Cc1ccc(F)cc1)C(=O)O; ξαMeW = CC(N)(Cc1c[nH]c2ccccc12)C(=O)O; d(cisHyp) = O=C(O)[C@H]1C[C@@H](O)CN1; Bta = N[C@@H](Cc1csc2ccccc12)C(=O)O; NMe3Pal = CN[C@@H](Cc1cccnc1)C(=O)O; NMeF = CN[C@@H](Cc1ccccc1)C(=O)O; X1 = O=C([C@H]1COCCN1[*:1])[*:2]; dPip(4-aza) = O=C(O)[C@H]1CNCCN1; 3Pal = N[C@@H](Cc1cccnc1)C(=O)O; NMeNle = CCCC[C@H](NC)C(=O)O; dPip = O=C(O)[C@H]1CCCCN1; Orn = NCCC[C@H](N)C(=O)O; dAze = O=C(O)[C@H]1CCN1; Sar = CNCC(=O)O
Molecular target: T1, Human PD-L1/PD-1 (Homo sapiens, UniProt Q9NZQ7)
T1 construct: TVMV protease cleavage site (C); made in house; host or cells: HEK293T cells
T1 sequence (Q9NZQ7 with tags, fused parts or gaps): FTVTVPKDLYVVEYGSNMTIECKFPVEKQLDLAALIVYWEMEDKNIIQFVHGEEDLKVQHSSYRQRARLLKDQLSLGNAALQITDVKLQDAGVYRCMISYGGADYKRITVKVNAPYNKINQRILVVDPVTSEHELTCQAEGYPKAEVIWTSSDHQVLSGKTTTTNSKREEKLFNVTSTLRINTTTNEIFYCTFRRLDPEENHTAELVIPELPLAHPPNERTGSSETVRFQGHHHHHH
Test: HTRF Human PD-L1/PD-1 binding assay (PD-1-Ig/PD-L1-His)
Details: PD-L1-His 10 nM, PD-1-Ig 20 nM; class symbol; read-out: HTRF Human PD-L1/PD-1 Binding Assay IC50 Range
Outline: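 Step 1: compound with PD-L1-His (10 nM final), 15 min. Step 2: PD-1-Ig (20 nM final), 15 min. Step 3: Eu-cryptate anti-Ig (1 nM) plus APC anti-His (20 nM), 30 min equilibration. Signal taken as 665 nm/620 nm ratio.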

| SMILES | IC50 [nM] |
| --- | --- |
| CCCC[C@H]1C(=O)N(C)CC(=O)N[C@@H](CC(=O)O)C(=O)N[C@@H](C(C)C)C(=O)N(C)[C@@H](Cc2ccccc2)C(=O)N[C@@H](Cc2ccc(O)cc2)C(=O)N(C)CC(=O)N[C@@H](Cc2c[nH]c3ccccc23)C(=O)N[C@@H](Cc2ccc(O)cc2)C(=O)N[C@@H](CC(C)C)C(=O)N[C@H](C(=O)NCC(N)=O)CSCC(=O)N[C@@H](Cc2cccnc2)C(=O)N(C)[C@@H](Cc2ccccc2)C(=O)N1C [Example 3243] ({CH2CO}-[3Pal][NMeF][NMeNle][Sar]DV[NMeF]Y[Sar]WYLCG-NH2; thioether N-13) | 10 to 99.9 |
| CCCC[C@H]1C(=O)N(C)CC(=O)N[C@@H](CC(=O)O)C(=O)N[C@@H](C(C)C)C(=O)N(C)[C@@H](Cc2ccccc2)C(=O)N[C@@H](Cc2ccc(O)cc2)C(=O)N(C)CC(=O)N[C@@H](Cc2c[nH]c3ccccc23)C(=O)N[C@@H](Cc2ccc(O)cc2)C(=O)N[C@@H](CC(C)C)C(=O)N[C@H](C(=O)NCC(N)=O)CSCC(=O)N[C@@H](Cc2ccc([N+](=O)[O-])cc2)C(=O)N(C)[C@@H](Cc2ccccc2)C(=O)N1C [Example 3244] ({CH2CO}-[Phe(4-NO2)][NMeF][NMeNle][Sar]DV[NMeF]Y[Sar]WYLCG-NH2; thioether N-13) | 10 to 99.9 |
| CCCC[C@H]1C(=O)N(C)CC(=O)N[C@@H](CC(=O)O)C(=O)N[C@@H](C(C)C)C(=O)N(C)[C@@H](Cc2ccccc2)C(=O)N[C@@H](Cc2ccc(O)cc2)C(=O)N(C)CC(=O)N[C@@H](Cc2c[nH]c3ccccc23)C(=O)N[C@@H](Cc2ccc(O)cc2)C(=O)N[C@@H](CC(C)C)C(=O)N[C@H](C(=O)NCC(N)=O)CSCC(=O)N[C@@H](Cc2csc3ccccc23)C(=O)N(C)[C@@H](Cc2ccccc2)C(=O)N1C [Example 3245] ({CH2CO}-[Bta][NMeF][NMeNle][Sar]DV[NMeF]Y[Sar]WYLCG-NH2; thioether N-13) | 1000 to 10000 |
| CCCC[C@H]1C(=O)N(C)CC(=O)N[C@@H](CC(=O)O)C(=O)N[C@@H](C(C)C)C(=O)N(C)[C@@H](Cc2ccccc2)C(=O)N[C@@H](Cc2ccc(O)cc2)C(=O)N(C)CC(=O)N[C@@H](Cc2c[nH]c3ccccc23)C(=O)N[C@@H](Cc2ccc(O)cc2)C(=O)N[C@@H](CC(C)C)C(=O)N[C@H](C(=O)NCC(N)=O)CSCC(=O)N[C@@H](Cc2ccc(Cl)c(Cl)c2)C(=O)N(C)[C@@H](Cc2ccccc2)C(=O)N1C [Example 3246] ({CH2CO}-[Phe(3,4-Cl2)][NMeF][NMeNle][Sar]DV[NMeF]Y[Sar]WYLCG-NH2; thioether N-13) | 10 to 99.9 |
| CCCC[C@H]1C(=O)N(C)CC(=O)N[C@@H](CC(N)=O)C(=O)N[C@@H](C(C)C)C(=O)N(C)[C@@H](Cc2ccccc2)C(=O)N[C@@H](Cc2ccc(O)cc2)C(=O)N(C)CC(=O)N[C@@H](Cc2c[nH]c3ccccc23)C(=O)N[C@@H](Cc2ccc(O)cc2)C(=O)N[C@@H](CCCN)C(=O)N[C@H](C(=O)NCC(N)=O)CSCC(=O)N[C@@H](Cc2ccccc2)C(=O)N(C)[C@@H](Cc2cccnc2)C(=O)N1C [Example 3614] ({CH2CO}-F[NMe3Pal][NMeNle][Sar]NV[NMeF]Y[Sar]WY[Orn]CG-NH2; thioether N-13) | 10 to 99.9 |
| CCCC[C@H]1C(=O)N(C)CC(=O)N[C@@H](CC(N)=O)C(=O)N[C@@H](C(C)C)C(=O)N(C)[C@@H](Cc2ccccc2)C(=O)N[C@@H](Cc2ccc(O)cc2)C(=O)N(C)CC(=O)N[C@@H](Cc2c[nH]c3ccccc23)C(=O)N[C@@H](Cc2ccc(O)cc2)C(=O)N[C@@H](CCCN)C(=O)N[C@H](C(=O)NCC(N)=O)CSCC(=O)N[C@@H](Cc2ccccc2)C(=O)N(C)[C@@H](Cc2cscn2)C(=O)N1C [Example 3616] ({CH2CO}-F[NMeAla(4-thiazolyl)][NMeNle][Sar]NV[NMeF]Y[Sar]WY[Orn]CG-NH2; thioether N-13) | 10 to 99.9 |
| CCCC[C@H]1C(=O)N(C)CC(=O)N[C@@H](CC(=O)O)C(=O)N[C@@H](C(C)C)C(=O)N[C@@H](Cc2ccccc2)C(=O)N[C@@H](Cc2ccc(O)cc2)C(=O)N(C)CC(=O)NC(C)(Cc2c[nH]c3ccccc23)C(=O)N[C@@H](Cc2ccc(O)cc2)C(=O)N[C@@H](CC(C)C)C(=O)N[C@H](C(=O)NCC(N)=O)CSCC(=O)N[C@@H](Cc2ccccc2)C(=O)N(C)[C@@H](Cc2ccccc2)C(=O)N1C (stereo partly drawn) [Example 3639] ({CH2CO}-F[NMeF][NMeNle][Sar]DVFY[Sar][ξαMeW]YLCG-NH2; thioether N-13) | 1000 to 10000 |
| CCCC[C@H]1C(=O)N2CCCC[C@@H]2C(=O)N[C@@H](CC(=O)O)C(=O)N[C@@H](C(C)C)C(=O)N(C)[C@@H](Cc2ccccc2)C(=O)N[C@@H](CCC(=O)O)C(=O)N2CCOC[C@@H]2C(=O)N[C@@H](Cc2c[nH]c3ccccc23)C(=O)N[C@@H](Cc2ccc(O)cc2)C(=O)N[C@@H](CCCN)C(=O)N[C@H](C(=O)NCC(N)=O)CSCC(=O)N[C@@H](Cc2cc(F)c(F)c(F)c2)C(=O)N(C)[C@@H](Cc2ccccc2)C(=O)N1C [Example 3641] ({CH2CO}-[Phe(3,4,5-F3)][NMeF][NMeNle][dPip]DV[NMeF]E[X1]WY[Orn]CG-NH2; thioether N-13) | 10 to 99.9 |
| CCCC[C@H]1C(=O)C2C[C@H](O)C[C@@H]2C(=O)N[C@@H](CC(=O)O)C(=O)N[C@@H](C(C)C)C(=O)N(C)[C@@H](Cc2ccccc2)C(=O)N[C@@H](CCC(=O)O)C(=O)N2CCCC[C@@H]2C(=O)N[C@@H](Cc2c[nH]c3ccccc23)C(=O)N[C@@H](Cc2ccc(O)cc2)C(=O)N[C@@H](CCCN)C(=O)N[C@H](C(=O)NCC(N)=O)CSCC(=O)N[C@@H](Cc2cc(F)c(F)c(F)c2)C(=O)N(C)[C@@H](Cc2ccccc2)C(=O)N1C (stereo partly drawn) [Example 3642] ({CH2CO}-[Phe(3,4,5-F3)][NMeF][X11]DV[NMeF]E[dPip]WY[Orn]CG-NH2; thioether N-12) | 10 to 99.9 |
| CCCC[C@H]1C(=O)N2CC[C@@H]2C(=O)N[C@@H](CC(=O)O)C(=O)N[C@@H](C(C)C)C(=O)N(C)[C@@H](Cc2ccccc2)C(=O)N[C@@H](CCC(=O)O)C(=O)N2CCOC[C@@H]2C(=O)N[C@@H](Cc2c[nH]c3ccccc23)C(=O)N[C@@H](Cc2ccc(O)cc2)C(=O)N[C@@H](CCCN)C(=O)N[C@H](C(=O)NCC(N)=O)CSCC(=O)N[C@@H](Cc2cc(F)c(F)c(F)c2)C(=O)N(C)[C@@H](Cc2ccccc2)C(=O)N1C [Example 3643] ({CH2CO}-[Phe(3,4,5-F3)][NMeF][NMeNle][dAze]DV[NMeF]E[X1]WY[Orn]CG-NH2; thioether N-13) | 10 to 99.9 |
| CCCC[C@H]1C(=O)N2C[C@H](O)C[C@@H]2C(=O)N[C@@H](CC(=O)O)C(=O)N[C@@H](C(C)C)C(=O)N(C)[C@@H](Cc2ccccc2)C(=O)N[C@@H](CCC(=O)O)C(=O)N2CC[C@@H]2C(=O)N[C@@H](Cc2c[nH]c3ccccc23)C(=O)N[C@@H](Cc2ccc(O)cc2)C(=O)N[C@@H](CCCN)C(=O)N[C@H](C(=O)NCC(N)=O)CSCC(=O)N[C@@H](Cc2cc(F)c(F)c(F)c2)C(=O)N(C)[C@@H](Cc2ccccc2)C(=O)N1C [Example 3644] ({CH2CO}-[Phe(3,4,5-F3)][NMeF][NMeNle][d(cisHyp)]DV[NMeF]E[dAze]WY[Orn]CG-NH2; thioether N-13) | 1 to 9.9 |
| CCCC[C@H]1C(=O)N2CCC[C@@H]2C(=O)N[C@@H](CC(=O)O)C(=O)N[C@@H](C(C)C)C(=O)N(C)[C@@H](Cc2ccccc2)C(=O)N[C@@H](CCC(=O)O)C(=O)N2CCOC[C@@H]2C(=O)N[C@@H](Cc2c[nH]c3ccccc23)C(=O)N[C@@H](Cc2ccc(O)cc2)C(=O)N[C@@H](CCCN)C(=O)N[C@H](C(=O)NCC(N)=O)CSCC(=O)N[C@@H](Cc2cc(F)c(F)c(F)c2)C(=O)N(C)[C@@H](Cc2ccccc2)C(=O)N1C [Example 3645] ({CH2CO}-[Phe(3,4,5-F3)][NMeF][NMeNle][dP]DV[NMeF]E[X1]WY[Orn]CG-NH2; thioether N-13) | 10 to 99.9 |
| CCCC[C@H]1C(=O)N2C[C@H](O)C[C@@H]2C(=O)N[C@@H](CC(=O)O)C(=O)N[C@@H](C(C)C)C(=O)N(C)[C@@H](Cc2ccccc2)C(=O)N[C@@H](CCC(=O)O)C(=O)N2CCC[C@@H]2C(=O)N[C@@H](Cc2c[nH]c3ccccc23)C(=O)N[C@@H](Cc2ccc(O)cc2)C(=O)N[C@@H](CCCN)C(=O)N[C@H](C(=O)NCC(N)=O)CSCC(=O)N[C@@H](Cc2cc(F)c(F)c(F)c2)C(=O)N(C)[C@@H](Cc2ccccc2)C(=O)N1C [Example 3646] ({CH2CO}-[Phe(3,4,5-F3)][NMeF][NMeNle][d(cisHyp)]DV[NMeF]E[dP]WY[Orn]CG-NH2; thioether N-13) | 10 to 99.9 |
| CCCC[C@H]1C(=O)N2C[C@H](O)C[C@@H]2C(=O)N[C@@H](CC(=O)O)C(=O)N[C@@H](C(C)C)C(=O)N(C)[C@@H](Cc2ccccc2)C(=O)N[C@@H](CCC(=O)O)C(=O)N2CCNC[C@@H]2C(=O)N[C@@H](Cc2c[nH]c3ccccc23)C(=O)N[C@@H](Cc2ccc(O)cc2)C(=O)N[C@@H](CCCN)C(=O)N[C@H](C(=O)NCC(N)=O)CSCC(=O)N[C@@H](Cc2cccc(Cl)c2)C(=O)N(C)[C@@H](Cc2ccccc2)C(=O)N1C [Example 3647] ({CH2CO}-[Phe(3-Cl)][NMeF][NMeNle][d(cisHyp)]DV[NMeF]E[dPip(4-aza)]WY[Orn]CG-NH2; thioether N-13) | 10 to 99.9 |
| CCCC[C@H]1C(=O)N2C[C@H](O)C[C@@H]2C(=O)N[C@@H](CC(=O)O)C(=O)N[C@@H](C(C)C)C(=O)N(C)[C@@H](Cc2ccccc2)C(=O)N[C@@H](CCC(=O)O)C(=O)N2CCNC[C@@H]2C(=O)N[C@@H](Cc2c[nH]c3ccccc23)C(=O)N[C@@H](Cc2ccc(O)cc2)C(=O)N[C@@H](CCCN)C(=O)N[C@H](C(=O)NCC(N)=O)CSCC(=O)N[C@@H](Cc2ccc(F)cc2)C(=O)N(C)[C@@H](Cc2ccccc2)C(=O)N1C [Example 3648] ({CH2CO}-[Phe(4-F)][NMeF][NMeNle][d(cisHyp)]DV[NMeF]E[dPip(4-aza)]WY[Orn]CG-NH2; thioether N-13) | 10 to 99.9 |
